From US20140088052A1, “CHALCONE DERIVATIVES AS NRF2 ACTIVATORS” (THE JOHNS HOPKINS UNIVERSITY, priority 2011, published 2014) come the findings set out here.

Like-named read-outs stand apart in the source and are kept apart here.

Format in all cases: cell-based, human
One data set concerns Beas-2B cells. Nature of the data set: Cell viability / cytotoxicity (MTT assay) in Beas-2B cells. The following applies: 24 h, DMSO = 100. Here is the method:
Concurrent with the gene expression analysis, the cytotoxicity of the chalcone derivatives was determined using the MTT assay.
Mad. Chem. 2007, 15, 2952-2962. […] Four hours before the end of incubation, the medium was removed and 100 μL of MTT (5 mg/mL in serum free medium) was added to each well. The MTT was removed after 4 h, cells were washed with PBS, and 100 μL DMSO was added to each well to dissolve the water-insoluble MTT-formazan crystals. The absorbance was recorded at 570 nm in a plate reader (Molecular Devices, Sunnyvale, Calif.).

The subject of data set [1] is Nrf2. Briefly: Expression of Nrf2-regulated genes GCLM and NQO1 by qRT-PCR in Beas-2B cells (screen). The settings on record: Homo sapiens, BEAS-2B, 16 h. Here is the method: To investigate the potency of the presently disclosed chalcone derivatives to activate Nrf2, the expression of antioxidant genes, GCLM and NADPH-NQO1, two well characterized transcriptional targets of Nrf2, were measured as surrogate markers. By “marker” is meant any protein or polynucleotide having an alteration in expression level or activity that is associated with a disease, disorder, or condition. It has been previously shown that oxidants or small molecule activators of Nrf2 increase GCLM and NQO1 in cells or tissues of wild-type, but not in Nrf2-deficient mice. Osburn, W. O., et al., Genetic or pharmacologic amplification of Nrf2 signaling inhibits acute inflammatory liver injury in mice. Toxicol. Sci. 2008, 104(1), 218-227. […]
RNA was isolated and gene expression was measured after 16 h.
Total RNA was extracted from cells/tissue using Qiagen RNeasy kit (Qiagen Corporation, Valencia, Calif.) and reverse transcription was performed by using random hexamers and MultiScribe reverse transcriptase according to the manufacturer's recommendations (Applied Biosystems, Foster City, Calif., USA). Quantitative real-time RT-PCR analyses of Nrf2, NQO1, HO1, and GCLM were performed by using Assay-on-Demand primers and probe sets from Applied Biosystems. Assays were performed using the ABI 7000 Taqman system (Applied Biosystems, Foster City, Calif.). β-actin was used for normalization.

For data set [2], the system named is Nrf2. Nature of the data set: Nrf2-regulated gene expression with or without N-acetyl-cysteine in Beas-2B cells. The settings on record: NAC 10 mM alone, 24 h. Here is the method:
Cells were harvested 24 h after the treatment and the Nrf2-driven expression of NQO1, HO-1, and GCLM was quantified. β-actin was used for normalization. Data are representative of three independent experiments. Values shown are mean±SD of triplicate wells (P≦0.05);
The activation of Nrf2 by various electrophiles and compounds that are Michael acceptors is attributed to changes in ROS production and or redox environment and or direct cysteine modification in Keap1. Nguyen, T., et al., The Nrf2-antioxidant response element signaling pathway and its activation by oxidative stress. J. Biol. Chem. 2009, 284, 13291-13295; McMahon, M., et al., Keap1 perceives stress via three sensors for the endogenous signaling molecules nitric oxide, zinc, and alkenals. Proc. Natl. Acad. Sci. U.S.A. 2010, 107, 18838-18843. Whether 2b activates Nrf2 by generating ROS or redox changes also was examined.

Setting [3] is: DMSO = 1.0 (Table 2), read-out: Relative Fold Change GCLM.
The mark [4] stands for this setting: DMSO = 1.0 (Table 2), read-out: Relative Fold Change NQO1.
[5] abbreviates: DMSO = 1 (Table 3), read-out: Relative Fold Change GCLM.
Where [6] appears, read: DMSO = 1 (Table 3), read-out: Relative Fold Change NQO1.

For `COc1ccc(C(=O)/C=C/c2ccccc2C(F)(F)F)cc1` [Compound 2d, (E)-1-(4-methoxyphenyl)-3-(2-(trifluoromethyl)phenyl)prop-2-en-1-one], the “% Cell Viability” value in the data set with Beas-2B cells was determined as 96%. For the same compound, the fold induction at 10 µM worked out at 5.4 in the data set with Nrf2 [1] (setting [3]), 4.6 in the data set with Nrf2 [1] (setting [4]), 5.4 in the data set on Nrf2 [1] (setting [5]) and 4.6 with Nrf2 [1] (setting [6]).

`COc1cc(OC)c(C(=O)/C=C/c2ccccc2C(F)(F)F)c(OC)c1` [Compound 2l, (E)-1-(2,4,6-trimethoxyphenyl)-3-(2-(trifluoromethyl)phenyl)prop-2-en-1-one]: in the data set on Beas-2B cells, the “% Cell Viability” value stood at 145.3%. In addition, the fold induction at 10 µM in the data set on Nrf2 [1] (setting [3]) was 4.4; with Nrf2 [1] (setting [4]) it was 4.3; in the data set on Nrf2 [1] (setting [5]) it was 4.4; in the data set with Nrf2 [1] (setting [6]), 4.3.

For the compound `COc1cccc(C(=O)/C=C/c2ccccc2C(F)(F)F)c1` [Compound 2c, (E)-1-(3-methoxyphenyl)-3-(2-(trifluoromethyl)phenyl)prop-2-en-1-one], the “% Cell Viability” value with Beas-2B cells is given as 96.6%. In addition, the fold induction at 10 µM with Nrf2 [1] (setting [3]) turned out to be 5.6; in the data set on Nrf2 [1] (setting [4]), 4.3; in the data set on Nrf2 [1] (setting [5]), 5.6; in the data set with Nrf2 [1] (setting [6]), 4.3.

Consider `COc1ccc(C(=O)/C=C/c2ccc(C(F)(F)F)cc2)cc1` [Compound 4d, (E)-1-(4-methoxyphenyl)-3-(4-(trifluoromethyl)phenyl)prop-2-en-1-one], for which the “% Cell Viability” value with Beas-2B cells is recorded as 104.1%. Also, the fold induction at 10 µM came out at 3.5 in the data set on Nrf2 [1] (setting [3]), 4.6 in the data set with Nrf2 [1] (setting [4]), 3.5 with Nrf2 [1] (setting [5]) and 4.6 in the data set on Nrf2 [1] (setting [6]).

For the compound `O=C(/C=C/c1ccccc1C(F)(F)F)c1ccccc1` [Compound 2a, (E)-1-phenyl-3-(2-(trifluoromethyl)phenyl)prop-2-en-1-one], in the data set on Beas-2B cells, the “% Cell Viability” value stood at 144.8%. For the same compound, the fold induction at 10 µM in the data set with Nrf2 [1] (setting [3]) was determined as 5; in the data set on Nrf2 [1] (setting [4]), 5.3; in the data set on Nrf2 [1] (setting [5]) it was 5; with Nrf2 [1] (setting [6]), 5.3.

Regarding `COc1cc(OC)cc(C(=O)/C=C/c2ccccc2[N+](=O)[O-])c1` [Compound 5i], in the data set with Beas-2B cells, the “% Cell Viability” value is recorded as 90.9%. For the same compound, the fold induction at 10 µM in the data set with Nrf2 [1] (setting [3]) came to 3.4; in the data set on Nrf2 [1] (setting [4]), 4.1; in the data set with Nrf2 [1] (setting [5]), 3.4; in the data set on Nrf2 [1] (setting [6]), 4.1.

As to `COc1cc(OC)cc(C(=O)/C=C/c2ccccc2C(F)(F)F)c1` [Compound 2i, (E)-1-(3,5-dimethoxyphenyl)-3-(2-(trifluoromethyl)phenyl)prop-2-en-1-one], the “% Cell Viability” value in the data set with Beas-2B cells is listed as 87.1%. For the same compound, the fold induction at 10 µM in the data set on Nrf2 [1] (setting [3]) was 4; in the data set with Nrf2 [1] (setting [4]), 3.7; in the data set with Nrf2 [1] (setting [5]), 4; in the data set with Nrf2 [1] (setting [6]) it was 3.7.

For the compound `CC(=O)N[C@@H](CS)C(=O)O` [NAC, N-acetyl-cysteine, reference compound], the “induction of Nrf2-regulated genes, NAC alone” value in the data set on Nrf2 [2] is on record as “no induction of Nrf2-regulated genes”.

As for `COc1ccccc1C(=O)/C=C/c1ccc(C(F)(F)F)cc1` [Compound 4b, (E)-1-(2-methoxyphenyl)-3-(4-(trifluoromethyl)phenyl)prop-2-en-1-one], the “% Cell Viability” value in the data set on Beas-2B cells is 91%. The fold induction at 10 µM in the data set with Nrf2 [1] (setting [3]) stood at 4.3; in the data set with Nrf2 [1] (setting [4]), 5.4; with Nrf2 [1] (setting [5]), 4.3; in the data set with Nrf2 [1] (setting [6]), 5.4.

As to `COc1ccc(OC)c(C(=O)/C=C/c2ccc(C(F)(F)F)cc2)c1` [Compound 4g], the “% Cell Viability” value in the data set on Beas-2B cells worked out at 91.6%. For the same compound, the fold induction at 10 µM was 4.1 with Nrf2 [1] (setting [3]), 4 with Nrf2 [1] (setting [4]), 4.1 in the data set with Nrf2 [1] (setting [5]) and 4 with Nrf2 [1] (setting [6]).

With `COc1ccc(C(=O)/C=C/c2ccccc2C(F)(F)F)c(OC)c1` [Compound 2e, (E)-1-(2,4-dimethoxyphenyl)-3-(2-(trifluoromethyl)phenyl)prop-2-en-1-one], the “% Cell Viability” value with Beas-2B cells is listed as 105%. The fold induction at 10 µM is 5.4 in the data set with Nrf2 [1] (setting [3]), 4.5 with Nrf2 [1] (setting [4]), 5.4 with Nrf2 [1] (setting [5]) and 4.5 in the data set with Nrf2 [1] (setting [6]).

`C[S+]([O-])CCCCN=C=S` (stereo not shown) [Sulforaphane, reference compound]: the “% Cell Viability” value in the data set with Beas-2B cells was determined as 97.3%. Moreover, the fold induction at 10 µM in the data set with Nrf2 [1] (setting [3]) amounted to 2.7; in the data set with Nrf2 [1] (setting [4]) it was 3.6; with Nrf2 [1] (setting [5]), 2.7; in the data set with Nrf2 [1] (setting [6]), 3.6.

Take `COc1cccc(C(=O)/C=C/c2cccc(C(F)(F)F)c2)c1` [Compound 3c, (E)-1-(3-methoxyphenyl)-3-(3-(trifluoromethyl)phenyl)prop-2-en-1-one]: the “% Cell Viability” value in the data set with Beas-2B cells is recorded as 95.3%. Further, the fold induction at 10 µM in the data set with Nrf2 [1] (setting [3]) was determined as 4.6; in the data set on Nrf2 [1] (setting [4]), 3.5; in the data set with Nrf2 [1] (setting [5]), 4.6; in the data set with Nrf2 [1] (setting [6]), 3.5.

For the compound `COc1cccc(OC)c1C(=O)/C=C/c1ccccc1[N+](=O)[O-]` [Compound 5f], the “% Cell Viability” value with Beas-2B cells stood at 75.8%. The fold induction at 10 µM with Nrf2 [1] (setting [3]) is 4.1; with Nrf2 [1] (setting [4]), 3.7; in the data set with Nrf2 [1] (setting [5]), 4.1; with Nrf2 [1] (setting [6]), 3.7.

Take `COc1ccc(C(=O)/C=C/c2ccc(C(F)(F)F)cc2)c(OC)c1OC` [Compound 4j]: the “% Cell Viability” value in the data set on Beas-2B cells came out at 100.1%. Also, the fold induction at 10 µM was determined as 4.1 in the data set on Nrf2 [1] (setting [3]), 3.9 in the data set on Nrf2 [1] (setting [4]), 4.1 in the data set on Nrf2 [1] (setting [5]) and 3.7 in the data set with Nrf2 [1] (setting [6]).

For `COc1ccc(C(=O)/C=C/c2ccccc2C(F)(F)F)c(OC)c1OC` [Compound 2k, (E)-1-(2,3,4-trimethoxyphenyl)-3-(2-(trifluoromethyl)phenyl)prop-2-en-1-one], the “% Cell Viability” value in the data set on Beas-2B cells is given as 101.6%. The fold induction at 10 µM came to 5.4 with Nrf2 [1] (setting [3]), 4.1 in the data set with Nrf2 [1] (setting [4]), 5.4 in the data set with Nrf2 [1] (setting [5]) and 4.1 in the data set with Nrf2 [1] (setting [6]).

Turning to `COc1ccc(C(=O)/C=C/c2ccc(C(F)(F)F)cc2)c(OC)c1` [Compound 4e, (E)-1-(2,4-dimethoxyphenyl)-3-(4-(trifluoromethyl)phenyl)prop-2-en-1-one], the “% Cell Viability” value with Beas-2B cells was 92.6%. Besides, the fold induction at 10 µM was 5 with Nrf2 [1] (setting [3]), 4.8 in the data set with Nrf2 [1] (setting [4]), 5 in the data set on Nrf2 [1] (setting [5]) and 4.8 in the data set with Nrf2 [1] (setting [6]).

As to `COc1cc(OC)cc(C(=O)/C=C/c2cccc(C(F)(F)F)c2)c1` [Compound 3i, (E)-1-(3,5-dimethoxyphenyl)-3-(3-(trifluoromethyl)phenyl)prop-2-en-1-one], in the data set with Beas-2B cells, the “% Cell Viability” value was found to be 108.2%. The fold induction at 10 µM was found to be 3.8 in the data set on Nrf2 [1] (setting [3]), 3.9 in the data set on Nrf2 [1] (setting [4]), 3.8 in the data set on Nrf2 [1] (setting [5]) and 3.9 with Nrf2 [1] (setting [6]).

`COc1cccc(OC)c1C(=O)/C=C/c1ccccc1C(F)(F)F` [Compound 2f, (E)-1-(2,6-dimethoxyphenyl)-3-(2-(trifluoromethyl)phenyl)prop-2-en-1-one]: the “% Cell Viability” value in the data set on Beas-2B cells is 101.1%. The fold induction at 10 µM with Nrf2 [1] (setting [3]) was 5.7; in the data set with Nrf2 [1] (setting [4]), 5.3; in the data set with Nrf2 [1] (setting [5]) it was 5.7; with Nrf2 [1] (setting [6]), 5.3.
